Experimental data taken from patent publication US20230103791A1 (GLAXOSMITHKLINE INTELLECTUAL PROPERTY DEVELOPMENT LIMITED, priority 2019, published 2023).

molecular target: T1, human Nav1.8 (Homo sapiens, UniProt Q9Y5Y9); test: Nav1.8 sodium channels assay, QPatch 48 HTX electrophysiology in HEK293-Nav1.8 cells; assay type: cell-based; conditions: at least one set of experimental runs; read-out: average pIC50 value against Nav1.8 (converted)
T1 construct: expressed in transfected cells; host or cells: HEK293 (HEK293-Nav1.8)
T1 sequence (Q9Y5Y9 whole entry): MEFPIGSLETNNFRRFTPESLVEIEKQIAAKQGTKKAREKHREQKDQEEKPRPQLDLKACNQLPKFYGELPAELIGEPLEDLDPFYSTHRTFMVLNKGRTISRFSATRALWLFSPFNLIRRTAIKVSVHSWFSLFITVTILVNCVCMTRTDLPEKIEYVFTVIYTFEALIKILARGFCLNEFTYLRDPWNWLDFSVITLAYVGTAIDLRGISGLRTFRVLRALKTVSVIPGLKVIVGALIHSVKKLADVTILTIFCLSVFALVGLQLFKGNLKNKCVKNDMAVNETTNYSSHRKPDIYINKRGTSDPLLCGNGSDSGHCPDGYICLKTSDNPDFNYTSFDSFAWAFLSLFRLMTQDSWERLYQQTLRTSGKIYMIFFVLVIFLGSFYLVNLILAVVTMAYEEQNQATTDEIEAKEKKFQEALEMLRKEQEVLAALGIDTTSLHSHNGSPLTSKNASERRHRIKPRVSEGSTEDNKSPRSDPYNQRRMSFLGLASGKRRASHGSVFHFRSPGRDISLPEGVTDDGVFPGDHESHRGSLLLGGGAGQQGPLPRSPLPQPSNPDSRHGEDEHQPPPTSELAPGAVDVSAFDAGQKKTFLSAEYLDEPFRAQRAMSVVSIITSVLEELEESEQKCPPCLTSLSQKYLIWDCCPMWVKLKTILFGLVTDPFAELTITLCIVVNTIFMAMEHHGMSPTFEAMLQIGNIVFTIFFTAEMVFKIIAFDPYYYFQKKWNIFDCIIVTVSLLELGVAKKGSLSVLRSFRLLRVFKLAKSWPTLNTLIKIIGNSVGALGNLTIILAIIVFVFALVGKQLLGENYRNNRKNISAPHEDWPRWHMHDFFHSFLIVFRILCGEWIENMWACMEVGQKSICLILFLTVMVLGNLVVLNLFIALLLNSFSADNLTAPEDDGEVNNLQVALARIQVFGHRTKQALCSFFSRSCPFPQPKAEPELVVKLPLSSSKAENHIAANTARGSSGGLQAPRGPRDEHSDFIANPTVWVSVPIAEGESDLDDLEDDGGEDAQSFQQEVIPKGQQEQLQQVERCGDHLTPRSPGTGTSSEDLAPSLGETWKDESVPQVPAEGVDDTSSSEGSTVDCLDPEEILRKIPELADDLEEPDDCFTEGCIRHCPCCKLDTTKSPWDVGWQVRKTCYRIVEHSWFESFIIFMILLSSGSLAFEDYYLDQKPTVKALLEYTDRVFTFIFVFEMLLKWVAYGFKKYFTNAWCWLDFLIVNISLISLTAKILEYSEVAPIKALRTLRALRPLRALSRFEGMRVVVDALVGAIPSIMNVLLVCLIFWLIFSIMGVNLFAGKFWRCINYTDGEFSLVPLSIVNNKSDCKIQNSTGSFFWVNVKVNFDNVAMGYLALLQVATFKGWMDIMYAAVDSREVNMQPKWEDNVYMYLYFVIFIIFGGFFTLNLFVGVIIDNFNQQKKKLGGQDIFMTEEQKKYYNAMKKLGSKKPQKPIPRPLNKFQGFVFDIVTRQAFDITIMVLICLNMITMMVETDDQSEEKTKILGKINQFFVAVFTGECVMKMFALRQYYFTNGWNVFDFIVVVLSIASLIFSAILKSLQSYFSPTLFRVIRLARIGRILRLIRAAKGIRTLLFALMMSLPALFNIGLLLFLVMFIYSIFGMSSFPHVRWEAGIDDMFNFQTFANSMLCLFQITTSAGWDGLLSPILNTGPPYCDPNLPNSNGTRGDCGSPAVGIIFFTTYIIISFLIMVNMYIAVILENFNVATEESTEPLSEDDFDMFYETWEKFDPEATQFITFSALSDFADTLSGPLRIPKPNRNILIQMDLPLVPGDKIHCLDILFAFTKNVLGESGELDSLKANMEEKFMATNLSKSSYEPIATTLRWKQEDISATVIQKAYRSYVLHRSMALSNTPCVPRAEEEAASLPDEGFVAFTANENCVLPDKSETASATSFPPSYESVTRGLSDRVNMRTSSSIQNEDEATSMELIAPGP
T1 sequence (Q07699 19-218 partner): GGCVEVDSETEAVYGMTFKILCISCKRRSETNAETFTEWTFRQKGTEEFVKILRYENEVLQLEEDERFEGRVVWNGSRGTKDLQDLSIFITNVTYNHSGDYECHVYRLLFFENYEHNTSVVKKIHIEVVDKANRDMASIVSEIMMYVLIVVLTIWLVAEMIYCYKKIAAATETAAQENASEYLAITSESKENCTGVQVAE
Description: Human embryonic kidney […] cells (HEK293) expressing human Nav1.8, human Navβ1 and human TREK1 (HEK293-Nav1.8) were grown at 37° C., 5% CO2 in 150 cm^2 flasks. HEK293-Nav1.8 were passaged every 2-3 days when confluency reached 80-90% in to T175 cell culture flasks.
Pharmacological assessment of the invention was performed using HEK293-Nav1.8 in combination with an assay developed on the QPatch 48 HTX electrophysiological system. HEK293-Nav1.8 were prepared on the day of use by removing culture media, washing in DPBS, adding Accutase (2 ml to cover the surface, aspirate 1 ml then 1.5 min at 37° C.) followed by addition of CHO-SFM II to stop the enzyme digestion and in order to obtain a suspension of 3×10^6 cell/mL.
The invention was prepared in an extracellular solution of the following composition (in mM) NaCl 145, KCl 4, CaCl2 2, MgCl 2, HEPES 1, Glucose 10, pH 7.4 with NaOH Osmolality 300 mOsM/L. The intracellular solution was used of the following composition (in mM) CsF 115, CsCl 20, NaCl 5, EGTA 10, HEPES 10, Sucrose 20, pH 7.2 with CsOH Osmolality 310 mOsm/L.
Utilizing the voltage-clamp mode in the QPatch 48 HTX system a half inactivation state voltage protocol (V1/2) was used to determine pharmacological activity of the invention at Nav1.8 ion channels. A V1/2 protocol was utilized with the following voltage steps: a holding voltage of −100 mV was established followed by a 20 ms voltage step to 0 mV (P1), followed by an inactivating voltage step at −46 mV for 8 seconds, followed by a step to −100 mV for 20 ms, before a 20 ms step to 0 mV (P2) before returning to the holding voltage of −100 mV. This voltage protocol was repeated at a frequency of 0.07 Hz., current magnitude was quantified at the P2 step throughout the recording. Inhibition of the measured current amplitude with the invention was analyzed by fitting a 6-8 point dose-response curve allowing determination of the fifty percent inhibition concentration (IC50). Within the QPatch HTX software, P2 current was normalized according to measurements made at baseline after compound and after positive reference compound and fit to the following equation: […]
To assess current run-down over the course of the experiment vehicle-only wells were utilized and the normalized current with vehicle-only (n.IVEH) was determined. To correct the compound response for run-down, the currents were correct according the following formula: […]
Compounds of the invention are tested for activity against Nav1. 8 sodium channels in the above assay.

Compound	IC50
Cc1[nH]c(=O)ccc1N1CN([C@H]2CC[C@H](F)C2)c2cc(C(F)(F)F)ccc2C1=O (racemic) [Example 208, 1-((1S,3S)-3-fluorocyclopentyl)-3-(2-methyl-6-oxo-1,6-dihydropyridin-3-yl)-7-(trifluoromethyl)-2,3-dihydroquinazolin-4(1H)-one and 1-((1R,3R)-3-fluorocyclopentyl)-3-(2-methyl-6-oxo-1,6-dihydropyridin-3-yl)-7-(trifluoromethyl)-2.3-dihydroquinazolin-4(1H)-one]	794 to 7940 nM
Cc1[nH]c(=O)ccc1N1CN([C@@H]2CCCC[C@H]2C)c2cc(C(F)(F)F)ccc2C1=O (racemic) [Example 278, Mixture of 3-(2-Methyl-6-oxo-1,6-dihydropyridin-3-yl)-1-((1R,2R)-2-methylcyclohexyl)-7-(trifluoromethyl)-2,3-dihydroquinazolin-4(1H)-one and 3-(2-Methyl-6-oxo-1,6-dihydropyridin-3-yl)-1-((1S,2S)-2-methylcyclohexyl)-7-(trifluoromethyl)-2,3-dihydroquinazolin-4(1H)-one]	≤ 100 nM
Cc1cc(F)ccc1N1c2cc(C(F)(F)F)ccc2C(=O)N(c2ccc(=O)[nH]c2)C1C (single isomer, unassigned) [Example 285]	794 to 7940 nM
Cc1cc(=O)[nH]c(C)c1N1CN(c2ccc(F)cc2C(C)C)c2cc(C(F)(F)F)ccc2C1=O (single isomer, unassigned) [Example 289, 3-(2,4-Dimethyl-6-oxo-1,6-dihydropyridin-3-yl)-1-(4-fluoro-2-isopropylphenyl)-7-(trifluoromethyl)-2,3-dihydroquinazolin-4(1H)-one]	794 to 7940 nM
Cc1cc(=O)[nH]c(C)c1N1CN(c2ccc(F)cc2C(C)C)c2cc(C(F)(F)F)ccc2C1=O (single isomer, unassigned) [Example 290, 3-(2,4-dimethyl-6-oxo-1,6-dihydropyridin-3-yl)-1-(4-fluoro-2-isopropylphenyl)-7-(trifluoromethyl)-2,3-dihydroquinazolin-4(1H)-one]	126 to 631 nM
Cc1cc(=O)[nH]c(C)c1N1CN(c2ccc(F)cc2C(C)C)c2ccc(Cl)cc2C1=O (single isomer, unassigned) [Example 291, 6-Chloro-3-(2,4-dimethyl-6-oxo-1,6-dihydropyridin-3-yl)-1-(4-fluoro-2-isopropylphenyl)-2,3-dihydroquinazolin-4(1H)-one]	794 to 7940 nM
Cc1cc(=O)[nH]c(C)c1N1CN(c2ccc(F)cc2C(C)C)c2ccc(Cl)cc2C1=O (single isomer, unassigned) [Example 292, 6-Chloro-3-(2,4-dimethyl-6-oxo-1,6-dihydropyridin-3-yl)-1-(4-fluoro-2-isopropylphenyl)-2,3-dihydroquinazolin-4(1H)-one]	126 to 631 nM
Cc1[nH]c(=O)ccc1N1CN(c2ccc(F)cc2C(C)(C)C)c2ccc(Cl)cc2C1=O (single isomer, unassigned) [Example 293, 1-(2-(tert-Butyl)-4-fluorophenyl)-6-chloro-3-(2-methyl-6-oxo-1,6-dihydropyridin-3-yl)-2,3-dihydroquinazolin-4(1H)-one]	126 to 631 nM
Cc1[nH]c(=O)ccc1N1CN(c2ccc(F)cc2C(C)(C)C)c2ccc(Cl)cc2C1=O (single isomer, unassigned) [Example 294, 1-(2-(tert-Butyl)-4-fluorophenyl)-6-chloro-3-(2-methyl-6-oxo-1,6-dihydropyridin-3-yl)-2,3-dihydroquinazolin-4(1H)-one]	≤ 100 nM
Cc1[nH]c(=O)ccc1N1CN(c2ccc(F)cc2C(C)(C)C)c2cc(C(F)(F)F)ccc2C1=O (single isomer, unassigned) [Example 295, 1-(2-(tert-butyl)-4-fluorophenyl)-3-(2-methyl-6-oxo-1,6-dihydropyridin-3-yl)-7-(trifluoromethyl)-2,3-dihydroquinazolin-4(1H)-one]	794 to 7940 nM
Cc1[nH]c(=O)ccc1N1CN(c2ccc(F)cc2C(C)(C)C)c2cc(C(F)(F)F)ccc2C1=O (single isomer, unassigned) [Example 296, 1-(2-(tert-butyl)-4-fluorophenyl)-3-(2-methyl-6-oxo-1,6-dihydropyridin-3-yl)-7-(trifluoromethyl)-2,3-dihydroquinazolin-4(1H)-one]	≤ 100 nM
Cc1cc(F)ccc1N1CN(c2ccc(=O)n(C)c2)C(=O)c2ccc(C(F)(F)F)cc21 [Example 1]	794 to 7940 nM
Cc1cc(F)ccc1N1CN(c2cccnc2)C(=O)c2ccc(C(F)(F)F)cc21 [Example 2]	794 to 7940 nM
COc1ncc(N2CN(c3ccc(F)cc3C)c3cc(C(F)(F)F)ccc3C2=O)cn1 [Example 3, 1-(4-fluoro-2-methylphenyl)-3-(2-methoxypyrimidin-5-yl)-7-(trifluoromethyl)-2,3-dihydroquinazolin-4(1H)-one]	794 to 7940 nM
Cc1cc(F)ccc1N1CN(c2ccnn2C)C(=O)c2cc(C(F)(F)F)ccc21 [Example 4, 1-(4-fluoro-2-methylphenyl)-3-(1-methyl-1H-pyrazol-5-yl)-6-(trifluoromethyl)-2,3-dihydroquinazolin-4(1H)-one]	126 to 631 nM
CC(=O)Nc1cccc(N2CN(c3ccc(F)cc3C)c3cc(C(F)(F)F)ccc3C2=O)c1 [Example 5, N-(3-(1-(4-fluoro-2-methylphenyl)-4-oxo-7-(trifluoromethyl)-1,4-dihydroquinazolin-3(2H)-yl)phenyl)aceta-mide]	794 to 7940 nM
CC(=O)Nc1ccc(N2CN(c3ccc(F)cc3C)c3cc(C(F)(F)F)ccc3C2=O)cc1 [Example 6, N-(4-(1-(4-fluoro-2-methylphenyl)-4-oxo-7-(trifluoromethyl)-1,4-dihydroquinazolin-3(2H)-yl)phenyl)aceta-mide]	794 to 7940 nM
Cc1cc(F)ccc1N1CN(c2ccc(C(N)=O)nc2)C(=O)c2c1ccc(Cl)c2F [Example 7, 5-(6-chloro-5-fluoro-1-(4-fluoro-2-methylphenyl)-4-oxo-1,4-dihydroquinazolin-3(2H)-yl)picolinamide]	794 to 7940 nM
Cc1cc(F)ccc1N1CN(c2ccnc(C(N)=O)c2)C(=O)c2c1ccc(Cl)c2F [Example 8, 4-(6-chloro-5-fluoro-1-(4-fluoro-2-methylphenyl)-4-oxo-1,4-dihydroquinazolin-3(2H)-yl)picolinamide]	794 to 7940 nM
COc1ccc(N2CN(c3ccc(F)cc3Br)c3ccc(C(F)(F)F)cc3C2=O)c(C)n1 [Example 9, 1-(2-bromo-4-fluorophenyl)-3-(6-methoxy-2-methylpyridin-3-yl)-6-(trifluoromethyl)-2,3-dihydroquinazolin-4(1H)-one]	794 to 7940 nM
COc1ccc(N2CN(c3ccc(F)cc3C)c3cc(C(F)(F)F)ccc3C2=O)cn1 [Example 10, 1-(4-fluoro-2-methylphenyl)-3-(6-methoxypyridin-3-yl)-7-(trifluoromethyl)-2,3-dihydroquinazolin-4(1H)-one]	794 to 7940 nM
Cc1cnccc1N1CN(c2ccc(OC(F)(F)F)cc2C)c2cc(F)c(Cl)cc2C1=O [Example 11, 6-chloro-7-fluoro-1-(2-methyl-4-(trifluoromethoxy)phenyl)-3-(3-methylpyridin-4-yl)-2,3-dihydroquinazolin-4(1H)-one]	126 to 631 nM
CCc1cc(F)ccc1N1CN(c2ccncc2C)C(=O)c2cc(Cl)c(F)cc21 [Example 12, 6-chloro-1-(2-ethyl-4-fluorophenyl)-7-fluoro-3-(3-methylpyridin-4-yl)-2,3-dihydroquinazolin-4(1H)-one]	126 to 631 nM
Cc1cc(F)ccc1N1CN(c2ccc(S(C)(=O)=O)cc2)C(=O)c2ccc(C(F)(F)F)cc21 [Example 13, 1-(4-fluoro-2-methylphenyl)-3-(4-(methylsulfonyl)phen-yl)-7-(trifluoromethyl)-2,3-dihydroquinazolin-4(1H)-one]	794 to 7940 nM
Cc1cc(F)ccc1N1CN(c2cccc(S(C)(=O)=O)c2)C(=O)c2ccc(C(F)(F)F)cc21 [Example 14, 1-(4-fluoro-2-methylphenyl)-3-(3-(methylsulfonyl)phen-yl)-7-(trifluoromethyl)-2,3-dihydroquinazolin-4(1H)-one]	794 to 7940 nM
Cc1cc(F)ccc1N1CN(C2CCS(=O)(=O)C2)C(=O)c2cc(C(F)(F)F)ccc21 (centres unmarked) [Example 15, 3-(1,1-dioxidotetrahydro-thiophen-3-yl)-1-(4-fluoro-2-methylphenyl)-6-(trifluoromethyl)-2,3-dihydroquinazolin-4(1H)-one]	794 to 7940 nM
